Data reported in publication PMC5909127, “Optimization of a “bump-and-hole” approach to allele-selective BET bromodomain inhibition” (Chemical Science, 2018).
Read-outs that look alike come from different tables or passages of the source.

Key:
in vitro = details: PAMPA, pH 7.4
BRDT BD2 WT = BRDT BD2 WT (Homo sapiens, UniProt Q58F21); test: competitive AlphaLISA; assay type: binding
Intrinsic Clearance = details: mouse liver microsomes
BRD2 BD1 WT = BRD2 BD1 WT (Homo sapiens, UniProt P25440); test: competitive AlphaLISA; assay type: binding
BRDT BD2 L/V = BRDT BD2 L/V (Homo sapiens, UniProt Q58F21, L306V); test: competitive AlphaLISA; assay type: binding
BRDT BD1 WT = BRDT BD1 WT (Homo sapiens, UniProt Q58F21); test: competitive AlphaLISA; assay type: binding
[1] = tested on: L/V BET bromodomains (BD1 and BD2 of BRD2, BRD3 and BRD4); test: competitive AlphaLISA (Bio-JQ1 displacement); assay type: binding, human; details: for AlphaLISA pIC50 ± SD Δ: L/V minus WT; for AlphaLISA pIC50 ± SD L/V: mean and SD of all somatic bromodomains, active enantiomer concentration
BRD2 BD1 L/V = BRD2 BD1 L/V (Homo sapiens, UniProt P25440, L110V); test: competitive AlphaLISA; assay type: binding
Plasma Half-life = details: BALB/c, mouse, pH 7.4
BRD3 BD1 WT = BRD3 BD1 WT (Homo sapiens, UniProt Q15059); test: competitive AlphaLISA; assay type: binding
BRD2 BD2 WT = BRD2 BD2 WT (Homo sapiens, UniProt P25440); test: competitive AlphaLISA; assay type: binding
[2] = biological target: WT BET bromodomains (BD1 and BD2 of BRD2, BRD3 and BRD4); test: competitive AlphaLISA (Bio-JQ1 displacement); assay type: binding, human; details: mean and SD of all somatic bromodomains; active enantiomer concentration
BRD3 BD2 L/V = BRD3 BD2 L/V (Homo sapiens, UniProt Q15059, L345V); test: competitive AlphaLISA; assay type: binding
BRD3 BD1 L/V = BRD3 BD1 L/V (Homo sapiens, UniProt Q15059, L70V); test: competitive AlphaLISA; assay type: binding
BRDT BD1 L/V = BRDT BD1 L/V (Homo sapiens, UniProt Q58F21, L63V); test: competitive AlphaLISA; assay type: binding
BRD2 BD2 L/V = BRD2 BD2 L/V (Homo sapiens, UniProt P25440, L383V); test: competitive AlphaLISA; assay type: binding
BRD3 BD2 WT = BRD3 BD2 WT (Homo sapiens, UniProt Q15059); test: competitive AlphaLISA; assay type: binding
BRD4 BD1 L/V = BRD4 BD1 L/V (Homo sapiens, UniProt O60885, L94V); test: competitive AlphaLISA; assay type: binding; details: AlphaLISA pIC50 Value BRD4 BD1 L/V
BRD4 BD1 WT = BRD4 BD1 WT (Homo sapiens, UniProt O60885); test: competitive AlphaLISA; assay type: binding; details: AlphaLISA pIC50 Value BRD4 BD1 WT
BRD4 BD2 WT = BRD4 BD2 WT (Homo sapiens, UniProt O60885); test: competitive AlphaLISA; assay type: binding
BRD4 BD2 L/V = BRD4 BD2 L/V (Homo sapiens, UniProt O60885, L387V); test: competitive AlphaLISA; assay type: binding

Sequence of BRD3 BD1 L/V (Q15059 24-144 L70V limits assumed): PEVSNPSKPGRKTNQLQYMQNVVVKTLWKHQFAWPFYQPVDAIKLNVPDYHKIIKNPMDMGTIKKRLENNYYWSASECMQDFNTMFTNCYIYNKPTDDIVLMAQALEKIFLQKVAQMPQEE
Sequence of BRD3 BD2 WT (Q15059 306-416): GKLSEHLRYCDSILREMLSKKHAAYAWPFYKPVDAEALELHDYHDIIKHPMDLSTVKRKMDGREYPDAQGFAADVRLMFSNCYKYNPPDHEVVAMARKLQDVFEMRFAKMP
Sequence of BRD3 BD2 L/V (Q15059 306-416 L345V limits assumed): as the sequence (Q15059 306-416) above, with L40V counted along it
Sequence of BRD2 BD2 WT (P25440 344-455): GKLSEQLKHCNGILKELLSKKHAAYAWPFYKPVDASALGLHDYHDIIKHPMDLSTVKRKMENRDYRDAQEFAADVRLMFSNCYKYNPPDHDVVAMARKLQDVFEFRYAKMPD
Sequence of BRD3 BD1 WT (Q15059 24-144): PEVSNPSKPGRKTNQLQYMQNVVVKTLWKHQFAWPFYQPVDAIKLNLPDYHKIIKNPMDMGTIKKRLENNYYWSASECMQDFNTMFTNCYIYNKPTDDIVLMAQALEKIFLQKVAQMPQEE
Sequence of BRD2 BD2 L/V (P25440 344-455 L383V): as the sequence (P25440 344-455) above, with L40V counted along it
Sequence of BRD2 BD1 WT (P25440 71-176): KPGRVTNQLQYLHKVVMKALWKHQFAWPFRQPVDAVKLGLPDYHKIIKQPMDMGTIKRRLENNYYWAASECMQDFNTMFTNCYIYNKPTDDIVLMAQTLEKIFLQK
Sequence of BRD2 BD1 L/V (P25440 71-176 L110V limits assumed): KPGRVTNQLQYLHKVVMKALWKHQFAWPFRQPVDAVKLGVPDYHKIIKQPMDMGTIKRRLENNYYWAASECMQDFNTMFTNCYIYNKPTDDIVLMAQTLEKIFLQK

Structure (SMILES)	IC50 (BRDT BD2 WT)	CL int (Intrinsic Clearance)	IC50 (BRD2 BD1 WT)	IC50 (BRDT BD2 L/V)	IC50 (BRDT BD1 WT)	AlphaLISA pIC50 ± SD Δ [1]	IC50 (BRD2 BD1 L/V)	half-life at 50 µM (Plasma Half-life)	IC50 (BRD3 BD1 WT)	IC50 (BRD2 BD2 WT)	AlphaLISA pIC50 ± SD WT [2]	IC50 (BRD3 BD2 L/V)	IC50 (BRD3 BD1 L/V)	IC50 (BRDT BD1 L/V)	IC50 (BRD2 BD2 L/V)	IC50 (BRD3 BD2 WT)	IC50 (BRD4 BD1 L/V)	IC50 (BRD4 BD1 WT)	AlphaLISA pIC50 ± SD L/V [1]	IC50 (BRD4 BD2 WT)	further results
COC(=O)[C@H](C)[C@@H]1N=C(c2ccc(Cl)cc2)c2cc(OC)ccc2-n2c(C)nnc21 (relative stereo) [Compound 3]	1.26 µM	0.7 ml min^–1 g^–1	2 µM	79.4 nM	2 µM	1.2 ± 0.2	63.1 nM	> 180 min	0.251 µM	1 µM	6.2 ± 0.3	31.6 nM	31.6 nM								Papp (in vitro): 18.5 ×10⁻⁶ cm/s
CCC[C@@H](C(=O)OC)[C@@H]1N=C(c2ccc(Cl)cc2)c2cc(OC)ccc2-n2c(C)nnc21 (relative stereo) [Compound 6]		5.2 ml min^–1 g^–1	31.6 µM		31.6 µM	0.6 ± 0.2	10000 nM	> 180 min	20 µM	> 100 µM	4.5 ± 0.2	10000 nM	6310 nM	25.1 µM	10000 nM	20 µM	7940 nM	25.1 µM	5.0 ± 0.1	63.1 µM	selectivity (L/V over WT, AlphaLISA) [1]: less than 10 fold
CCN(CC)C(=O)[C@H](C)[C@@H]1N=C(c2ccc(Cl)cc2)c2cc(OC)ccc2-n2c(C)nnc21 (relative stereo) [Compound 19]	25.1 µM	>50 ml min^–1 g^–1		3160 nM	39.8 µM	1.2 ± 0.2	1000 nM	> 180 min	5.01 µM	25.1 µM	4.9 ± 0.2	501 nM	398 nM	3.98 µM	1000 nM		1260 nM		6.1 ± 0.2	25.1 µM	IC50 (BRD4 BD2 L/V): 1260 nM
CC[C@@H](C(=O)N(CC)CC)[C@@H]1N=C(c2ccc(Cl)cc2)c2cc(OC)ccc2-n2c(C)nnc21 (relative stereo) [Compound 20]	39.8 µM	>50 ml min^–1 g^–1	31.6 µM	6310 nM	39.8 µM	1.2 ± 0.2	2000 nM	> 180 min	20 µM	15.8 µM	4.6 ± 0.1	1580 nM	501 nM	6.31 µM	1580 nM	25.1 µM	1260 nM	25.1 µM	5.8 ± 0.2	31.6 µM	IC50 (BRD4 BD2 L/V): 3160 nM
CCNC(=O)[C@H](CC)[C@@H]1N=C(c2ccc(Cl)cc2)c2ccc(OC)cc2-n2c(C)nnc21 (relative stereo) [Compound 22]	> 100 µM	2.1 ml min^–1 g^–1	> 100 µM	20000 nM	> 100 µM	>1.2	6310 nM	> 180 min	63.1 µM	> 100 µM	<4.0	3980 nM	3160 nM	20 µM	7940 nM	> 100 µM	7940 nM	63.1 µM	5.2 ± 0.2	> 100 µM	Papp (in vitro): 5.9 ×10⁻⁶ cm/s
Cc1sc2c(c1C)C(c1ccc(Cl)cc1)=N[C@@H](CC(=O)OC(C)(C)C)c1nnc(C)n1-2 [(+)JQ1, reference compound]		7.5 ml min^–1 g^–1				–0.1 ± 0.1		> 180 min													
COC(=O)CC1N=C(c2ccc(Cl)cc2)c2cc(OC)ccc2-n2c(C)nnc21 (stereo not shown) [Compound 1]		<0.5 ml min^–1 g^–1	0.316 µM	1000 nM	0.501 µM			54 min	0.126 µM	0.316 µM		501 nM	63.1 nM		316 nM						Papp (in vitro): 14.9 ×10⁻⁶ cm/s
COC(=O)CC1N=C(c2ccc(Cl)cc2)c2ccc(OC)cc2-n2c(C)nnc21 (stereo not shown) [Compound 2]	3.98 µM	1.7 ml min^–1 g^–1	2 µM	3160 nM	2 µM	0.1 ± 0.1	1580 nM	67 min		2.51 µM	5.8 ± 0.2	1000 nM	501 nM	1.58 µM	2000 nM	2.51 µM	1000 nM	1 µM	5.9 ± 0.2	2.51 µM	IC50 (BRD4 BD2 L/V): 2510 nM
CC[C@@H](C(=O)OC(C)(C)C)[C@@H]1N=C(c2ccc(Cl)cc2)c2cc(OC)ccc2-n2c(C)nnc21 [Compound 23]	6.31 µM	30.7 ml min^–1 g^–1	5.01 µM	2510 nM	6.31 µM	0.7 ± 0.1	1580 nM	> 180 min	2.51 µM	5.01 µM	5.3 ± 0.1	794 nM	398 nM	2.51 µM	1000 nM	5.01 µM	794 nM	5.01 µM	6.0 ± 0.2	6.31 µM	IC50 (BRD4 BD2 L/V): 1580 nM
C=CC[C@@H](C(=O)OC(C)(C)C)[C@@H]1N=C(c2ccc(Cl)cc2)c2cc(OC)ccc2-n2c(C)nnc21 [Compound 24]	10 µM	39.1 ml min^–1 g^–1	5.01 µM	1580 nM	7.94 µM	0.9 ± 0.2	1260 nM	> 180 min	3.98 µM	7.94 µM	5.3 ± 0.1	794 nM	316 nM	2 µM	501 nM	6.31 µM		5.01 µM	6.2 ± 0.2	3.98 µM	IC50 (BRD4 BD2 L/V): 1000 nM
CC[C@@H](C(=O)OC(C)(C)C)[C@@H]1N=C(c2ccc(Cl)cc2)c2ccc(OC)cc2-n2c(C)nnc21 [Compound 25]	39.8 µM	31.0 ml min^–1 g^–1	39.8 µM		25.1 µM	0.4 ± 0.2	10000 nM	> 180 min	20 µM	20 µM	4.6 ± 0.1	10000 nM	5010 nM			25.1 µM	7940 nM	15.8 µM	5.0 ± 0.2	25.1 µM	IC50 (BRD4 BD2 L/V): 20000 nM
C=CC[C@@H](C(=O)OC(C)(C)C)[C@@H]1N=C(c2ccc(Cl)cc2)c2ccc(OC)cc2-n2c(C)nnc21 [Compound 26]	10 µM	39.4 ml min^–1 g^–1	7.94 µM	2510 nM	10 µM	0.5 ± 0.1	2510 nM	> 180 min	3.16 µM	6.31 µM	5.2 ± 0.2	1260 nM	1260 nM	3.98 µM	1580 nM	5.01 µM	1580 nM	6.31 µM	5.8 ± 0.2	10 µM	IC50 (BRD4 BD2 L/V): 3160 nM
CCNC(=O)C[C@@H]1N=C(c2ccc(Cl)cc2)c2cc(OC)ccc2-n2c(C)nnc21 [I-BET762, reference compound]																					IC50 (BRDT BD1 L/V; read-out: AlphaLISA pIC50 Value BRDT BD1 L/V (converted)): 1 µM
